In this test the test system is RNB12 specific T cells. Put plainly: Identification of apitopes in the RNB12 region (fresh vs fixed APCs, proliferation and IFN gamma). It counts as cell-based, human. Conditions: RNB12 specific TCL, fresh or fixed BM14 cells (FIG. 18). Here is the method: Peripheral blood monocytes (PBMC) from healthy donors or Graves' disease patients were isolated (Histopaque-1077, Sigma-Aldrich), and frozen in aliquots. At day 0, cells were thawed and 106 PBMCs/ml cultured with 20 ug/ml peptide in supplemented (10 mM HEPES, 50 U/ml Penicillin/Streptomycin and 4 mM L-Glutamine (Lonza)) RPMI 1640 (Lonza) with 5% AB serum (Sigma Aldrich) added in a 6 well plate (Greiner Bio-one) and incubated in 37 C and 5% CO2. After 7 days rhIL-2 (R&D Systems) is added to a final concentration of 20 U/ml. […]
At day 24 the cells were harvested, washed and 2×104 cultured in a 96 well round-bottom plate (Cellstar, Greiner Bio One) with […] irradiated autologous PBMCs and VAVY/BM14/MGAR human cell lines expressing human MHC cl II molecules (International Histocompatibility Working group, Seattle, US) in supplemented RPMI+5% AB serum in presence of different antigens (peptides, protein) in concentration from 5-50 ug/ml. […] After the plates been frozen the cells were harvested and read with β counter (Wallac 1450 Microbeta Trilux) to assess proliferation. […]
The supernatants from TCL cultures were assessed for IFN gamma content by use of the Human IFN-gamma Duoset kit, R&D Systems following the manufacturer's instruction. Optical density was measured at 450 nm (Tecan Benelux)

Turning to KKKTLKLYNNGFTSVQGYKKK [RNB12-KKK], the apitope status result is on record as “confirmed to be apitopes”.

Values taken from US10730919B2, “Peptides” (APITOPE INTERNATIONAL NV, priority 2013, dated 2020).
